From patent publication US20050148034A1, “Methods for identification of modulators of angiogenesis, compounds discovered thereby, and methods of treatment using the compounds” (priority 2002, published 2005)
Read-outs that look alike come from different tables or passages of the source.

Key:
[1] = system: embryonic-like stem cells derived from placenta; assay: Marker expression of cultured embryonic-like stem cells (staining score, Table 2); assay type: cell-based, human; parameters: key to SMC-specific Myosin HC / GFAP / CD34+ / CD45+: −: no staining; +/−: <20% staining; +: 20-50% staining; ++: 50-75% staining; +++: >75% staining; details: for CD34+ / CD45+ / GFAP / Nestin / SMC-specific Myosin HC: placental conditioned media, fourteen days of culture; for numbers of cells expressing CD34, CD45 and smooth muscle cell (SMC)-specific myosin heavy chain / numbers of cells expressing nestin and glial fibrillary acidic protein (GFAP): summary of Table 2
Experimental: The following experiments evaluated the effects of Thalomid™, Actimid™ and Revimid™ on the morphological differentiation of embryonic-like stem cells derived from placenta. The morphological differentiation of cultured embryonic-like stem cells was evaluated after fourteen days of culture in the presence of placental conditioned medium and with DMSO (control), EGCF, Thalomid™, Actimid™ or Revimid™.
Embryonic-like stem cells were isolated from placenta as described above in Section 5.4. The embryonic-like stem cells were cultured using the culture conditions described above.
(§1) The cells were scored for the expression of CD34 (a marker of early hematopoietic progenitor cells; also an endothelial cell marker), CD45 (a marker of all hematopoietic cells except erythrocytes), CD105 (a marker of proliferating endothelial cells), smooth muscle cell (SMC)-specific myosin heavy chain, nestin ([…]), and glial fibrillary acidic protein (GFAP). Ratios of CD34 cells/TNC (Total Number of Cells), CD45 cells/TNC and CD105 cells/TNC were also determined.
In Table 2, the scoring was as follows: • −: no staining; +/−: <20% staining+: 20-50% staining; ++: 50-75% staining; +++: >75% staining.

[2] = system: embryonic-like stem cells derived from placenta; assay: Immunostaining for CD34, CD45 and CD105 in cultured placental stem cells (ratios to TNC, Table 3); assay type: cell-based, human; details: for CD34/TNC / CD45/TNC / CD105/TNC: placental conditioned media, 1 μg/ml, 14 days in culture; for numbers of cells expressing CD34, CD45 and CD 105: summary of Table 3
Experimental: as §1
In another experiment, the results of which are summarized in Table 3, embryonic-like stem cells derived from placenta were cultured, using the conditions described in the umbilical vessel ring assay described above, in the presence of placenta-conditioned medium with DMSO (negative control), Thalomid™, Actimid™ or Revimid™. After 14 days in culture, the cells were then immunostained for expression of CD34+, CD45+ and CD 105+.

[3] = system: embryonic-like stem cells derived from placenta; assay: Total vessel area/field and branching/bifurcation of cultured placental embryonic-like stem cells (Table 4); assay type: cell-based, human; parameters: key to Branching/Bifurcation (+/−): +: a branch or bifurcation was observed; −: no branch or bifurcation was observed; details: for branching and/or bifurcation exhibited by the cells / total vessel area/field covered by the cells: summary of Table 4
Experimental: In another experiment, the results of which are summarized in Table 4, embryonic-like stem cells derived from placenta were cultured, using the culture conditions described above, and in the presence of EGCF, DMSO, Thalomid™, Actimid™ or Revimid™.
A “+” means that a branch or bifurcation was observed and a “−” means that no branch or bifurcation was observed. […] See also FIGS. 3A, 3B

[4] = system: rat aortic rings; assay: Rat aortic angiogenesis assay; assay type: cell-based, Sprague Dawley rats; details: for mean microvessel growth (% of control): without microsomes
Experimental: Twelve well tissue culture grade plates were covered with 250 μl of Matrigel and allowed to gel for 30-45 min at 370 C, 5% Co2. Thoracic aortas were excised from eight to ten week old male Sprague Dawley rats and the fibroadipose tissue was removed. The aortas were sectioned into 1 mm long sections, rinsed eight times with EGM-2 (Clonetics Corp), placed on the Matrigel coated wells, covered with additional 250 μl Matrigel, and allowed to gel for 30-45 min at 370 C. The rings were cultured for 24 hours in 2 ml of EGM-2. After 24 hours, recombinant murine endostatin was reconstituted in EBM and added as a single treatment on day 1. Thalidomide was added at different concentrations (1 μg/ml, 5 μg/ml, 10 μg/ml, 50 μg/ml and 100 μg/ml) in the presence or absence of rabbit microsomes as noted in the Table 5. Aortic rings were photographed on days.

[5] = system: human umbilical cord vessel rings; assay: Human angiogenesis assay (umbilical artery vessel rings in Matrigel); assay type: cell-based; details: for Microvessel Growth (% Inhibition): vs 0.1% DMSO, three weeks, average of two rings
Text: Fresh human umbilical cords were collected by trained medical personnel under fill donor informed consent from local hospitals. The cords were transported and treated within three hours. Umbilical cords and vessel lumens were rinsed with chilled basal nutrient medium. The artery was removed from the cord using mechanical means, forceps and small surgical scissors in an aseptic field. The vessel was cleaned of connective tissue and vessel rings were cut cross-wise in a length of 1 mm. The rings were placed into EGM-2 medium (Clonetics Corp.) in a 50 ml conical bottom tube and stored at 4° C. Six-well tissue culture plates were covered with […] of Matrigel and allowed to gel for 30-45 min at 37° C., under 5% CO2. The vessel rings were rinsed in EGM-2 medium and placed on the Matrigel-coated wells, covered with additional 250 μl Matrigel, and allowed to gel for 30-45 min at 37° C. (see FIG. 6). The vessels were cultured for 24 hours in 4 ml of EGM-2 to allow the tissue to adapt to its new environment. After 24 hours incubation, the rings were treated either with 0.1% DMSO as control, or different concentrations of compounds (thalidomide or CC4047). Culture medium was changed twice per week for total of three weeks.
The effects of compounds on cultured vessel rings were compared with the effect of DMSO on vessel rings. The results were analyzed using Image-Pro® Plus software (MediaCybernetics, Inc. Carlsbad, Calif.).
These experiments were done in duplicates and the results are the average of two rings in same experiment. A different concentration of Fumagillin is used as positive control in this experiment.

[6] = system: human umbilical cord blood vessel rings; details: 10^−5 M, compared with the DMSO (0.5%) diluent control; cited from earlier work
[7] = system: human umbilical cord blood vessel rings; assay: Umbilical cord blood vessel ring angiogenesis assay (validation with known modulators); assay type: cell-based
Experimental: Blood vessels, approximately 1-2 mm in diameter and 1-2 cm in length, were excised from human umbilical cord within 12 hours of birth. Both arterial and venous tissue were harvested and maintained separately. The vessels were placed in DMEM containing 2.5 μg/ml of fungizone and cut into 1-2 mm length fragments using fine dissecting forceps and iridectomy scissors. Vessel fragments were freed of residual clots and soaked in DMEM before use. Dissecting and sectioning of vessels were performed with the aid of a surgical microscope. Similar angiogenic responses were obtained from blood vessels of venular and arterial origin but for each assay, vessel fragments from only one vessel were used. See FIG. 6 for a graphic depiction of the assay setu.
Assays were performed in petri dishes (10 to 25 cm^2) or 6-well culture plates (Costar, Cambridge, Mass.), which were prepared by pre-coating with either 0.1% gelatin (Sigma, St. Louis, Mo.) or MATRIGEL® (BD Biosciences) to form a matrix. Following the coating of the plates, 50 μl of human cord blood plasma in 5 mL of DMEM were added to each dish/well to form a surface film over the matrix. The film was allowed to set at 37° C. for 90 minutes, after which it was removed, leaving a thin film in each dish/well. Vessel ring segments were then positioned at central locations within the plate or dish. Petri dishes were divided into quarters, and vessel ring segments were placed in the center of each of the quadrants. In the case of 6-well culture plates, a vessel ring segment was placed in each of the wells. Vessel ring segments generally adhered to the coated matrix within 12 hours, allowing for the addition of media without risk of detachment due to buoyancy. […]
Test compounds were administered at the beginning of culture, once the adherent stem cells were selected, or once the vessel rings are determined to have adhered to the matrix. Each test compound is evaluated at various concentrations to enable generation of a dose response analysis. […]
Vessel outgrowth was scored as a quantitative comparison to the positive and negative controls, using the following notations: − negative; +/− minimally above negative control; + low level of outgrowth; ++ moderate level of outgrowth; +++ high level of outgrowth; ++++ positive control level of outgrowth. Vessel outgrowth was also scored morphometrically as the maximal distance of vessel sprout growth in microns from the vessel ring, and as the total area of endothelial cell coverage (ECA)/area of vessel ring (VRA).
Following culture for 14-21 days, as described above, angiogenesis was quantified and compared with control cultures. […]

| Compound | CD34+ ([1]; 1 μg/mL) | CD45+ ([1]; 1 μg/mL) | GFAP ([1]; 1 μg/mL) | Nestin ([1]; 1 μg/mL) | SMC-specific Myosin HC ([1]; 1 μg/mL) | CD34+ ([1]; 10 μg/mL) | CD45+ ([1]; 10 μg/mL) | GFAP ([1]; 10 μg/mL) | Nestin ([1]; 10 μg/mL) | SMC-specific Myosin HC ([1]; 10 μg/mL) | numbers of cells expressing CD34, CD45 and smooth muscle cell (SMC)-specific myosin heavy chain [1] | numbers of cells expressing nestin and glial fibrillary acidic protein (GFAP) [1] | CD34/TNC [2] | CD45/TNC [2] | CD105/TNC [2] | numbers of cells expressing CD34, CD45 and CD 105 [2] | Branching/Bifurcation (+/−) ([3]; 1 μg/ml) | Total Vessel Area/Field (% Coverage) ([3]; 1 μg/ml) | Branching/Bifurcation (+/−) ([3]; 10 μg/ml) | inhibition of angiogenesis ([7]; 100 μg/ml) | further results |
| --- | --- | --- | --- | --- | --- | --- | --- | --- | --- | --- | --- | --- | --- | --- | --- | --- | --- | --- | --- | --- | --- |
| Nc1cccc2c1C(=O)N(C1CCC(=O)NC1=O)C2=O (centres unmarked) [Actimid, 4-(Amino)-2-(2,6-dioxo(3-piperidyl))-isoindoline-1,3-dione] | − | − | − | ++ (50-75% staining) | − | − | − | + (20-50% staining) | +++ (>75% staining) | − | decreased | increased | 0.04 | 0.94 | 26.3 | decrease | − | 11.3 +/− 2.8 % Coverage | − |  | Total Vessel Area/Field (% Coverage) ([3]; 10 μg/ml): 6.7 +/− 4.1 % Coverage; branching and/or bifurcation exhibited by the cells [3]: decreases the branching and/or bifurcation exhibited by the cells; total vessel area/field covered by the cells [3]: decrease in the total vessel area/field covered by the cells; mean microvessel growth (% of control) ([4]; 10 μg/ml): 14.2 % of control; mean microvessel growth (% of control) ([4]; 100 μg/ml): 0.00 % of control; need of rabbit microsomes for inhibition of vessel formation ([4]; summary of Table 5): did not require microsomes for inhibition of vessel formation; Microvessel Growth (% Inhibition) ([5]; 0..1 μM): 50.1 % Inhibition; Microvessel Growth (% Inhibition) ([5]; 1 μM): 85 % Inhibition; Microvessel Growth (% Inhibition) ([5]; 10 μM): 100 % Inhibition; formation of microvessel outgrowth ([5]; compared with DMSO treated samples): inhibited the formation of microvessel outgrowth in a dose dependent manner |
| Nc1cccc2c1CN(C1CCC(=O)NC1=O)C2=O (centres unmarked) [Revimid, 3-(4-amino-1-oxo-1,3-dihydro-isoindol-2-yl)-piperidine-2,6-dione] | − | − | + (20-50% staining) | + (20-50% staining) | − | − | − | +++ (>75% staining) | ++ (50-75% staining) | − | decreased | increased | .22 | 1.71 | 17.3 | decrease | − | 13.5 +/− 7.7 % Coverage | − |  | Total Vessel Area/Field (% Coverage) ([3]; 10 μg/ml): 12.1 +/− 7.4 % Coverage; branching and/or bifurcation exhibited by the cells [3]: decreases the branching and/or bifurcation exhibited by the cells; total vessel area/field covered by the cells [3]: decrease in the total vessel area/field covered by the cells |
| C[C@]12CCC(=O)C=C1CC[C@@H]1[C@@H]2[C@@H](O)C[C@@]2(C)[C@H]1CC[C@]2(O)C(=O)CO [hydrocortisone] |  |  |  |  |  |  |  |  |  |  |  |  |  |  |  |  |  |  |  |  | inhibition of angiogenesis [6]: partially inhibited angiogenesis |
| Cc1ccc(C(=O)Nc2ccc(S(=O)(=O)O)c3cc(S(=O)(=O)O)cc(S(=O)(=O)O)c23)cc1NC(=O)c1cccc(NC(=O)Nc2cccc(C(=O)Nc3cc(C(=O)Nc4ccc(S(=O)(=O)O)c5cc(S(=O)(=O)O)cc(S(=O)(=O)O)c45)ccc3C)c2)c1 [suramin] |  |  |  |  |  |  |  |  |  |  |  |  |  |  |  |  |  |  |  | virtually totally inhibited angiogenesis | inhibition of angiogenesis ([7]; 10 μg/ml): the inhibitory activity of this compound is lost |
| heparin |  |  |  |  |  |  |  |  |  |  |  |  |  |  |  |  |  |  |  | small but significant inhibition of angiogenesis |  |
| low molecular weight heparin |  |  |  |  |  |  |  |  |  |  |  |  |  |  |  |  |  |  |  | small but significant inhibition of angiogenesis |  |
